For one compound, MIC results are on record in patent US20260115170A1, “Method of Ameliorating a Symptom or a Disease in a Human Caused by Fungus” (ISHIHARA SANGYO KAISHA, LTD., priority 2020, published 2026).

≈ marks a conversion by molar mass, not a printed value.

Holding throughout (test): Test Example 2 minimum inhibitory concentration
Holding throughout (type): cell-based

Assay [1] has as its system Aspergillus niger (ATCC6725). As to conditions: Sabouraud medium, 25° C. for 120 hours. The procedure:
(§1) Test Microbial Strains: Candida albicans (NBRC1594 Strain), Candida glabrata (JCM3761 Strain), Cryptococcus neoformans (JCM3685 Strain), Aspergillus fumigatus (JCM10253), Aspergillus niger (ATCC6725), Trichophyton rubrum (ATCCMYA4607), Trichophyton interdegitale (ATCC9533), Microsporum canis (NBRC7863), and Arthroderma vanbreuseghemii (JCM1891)
(§2) The Candida microbes and the Cryptococcus microbe were cultured at 30° C. for 72 hours and the other microbes were cultured at 25° C. for 120 hours in Sabouraud media, and then suspended in 5 mL of PBS (containing 8 g of sodium chloride, 2.9 g of disodium hydrogen phosphate, 0.2 g of potassium chloride, and 0.2 g of potassium dihydrogen phosphate in 1000 mL) containing Tween80 (polyoxyethylene sorbitan monooleate: Kanto Chemical Co., Inc.) (1% (V/V))), and the resulting suspension was filtered through a cell strainer (φ40 μm). Spores were recovered from the filtrate by centrifugation (3500 rpm, 5 minutes) and washed twice with physiological saline, and then a spore suspension was prepared (1×10^6 spores/mL). 50 μL of the spore suspension was inoculated into a Sabouraud medium to which compound No. 6 dissolved in DMSO was added to have a predetermined concentration. The Candida microbes and the Cryptococcus microbe were cultured at 30° C. for 72 hours and the other microbes were cultured at 25° C. for 120 hours, then the presence or absence of colony growth was investigated, and the minimum inhibitory concentration was determined.

Assay [2] concerns Microsporum canis (NBRC7863). As to conditions: Sabouraud medium, 25° C. for 120 hours. As to the method:
as §1, §2

For assay [3], the system named is Candida albicans (NBRC1594 Strain). The following applies: Sabouraud medium, 30° C. for 72 hours. The procedure: as §1, §2
The test system of assay [4] is Trichophyton interdegitale (ATCC9533). The following applies: Sabouraud medium, 25° C. for 120 hours. As to the method:
as §1, §2

The subject of assay [5] is Trichophyton rubrum (ATCCMYA4607). The following applies: Sabouraud medium, 25° C. for 120 hours. As to the method: as §1, §2
Assay [6] relates to Arthroderma vanbreuseghemii (JCM1891). As to conditions: Trichophyton mentagrophytes, Sabouraud medium, 25° C. for 120 hours. As to the method: as §1, §2
Assay [7] relates to Aspergillus fumigatus (JCM10253). The following applies: Sabouraud medium, 25° C. for 120 hours. As to the method: as §1, §2
Assay [8] concerns Candida glabrata (JCM3761 Strain). The following applies: Nakaseomyces glabratus, Sabouraud medium, 30° C. for 72 hours. The procedure:
as §1, §2

Assay [9] concerns Cryptococcus neoformans (JCM3685 Strain). The following applies: Sabouraud medium, 30° C. for 72 hours. As to the method: as §1, §2

On to `Cc1ccc(-c2nc(C#N)[nH]c2Cl)cc1Cl` [Compound No. 6, 5-Chloro-4-(3-chloro-4-methylphenyl)-1H-imidazole-2-carbonitrile], for which the MIC (as a rule, the lowest concentration found to suppress growth) in assay [1] was determined as 62.5 µg/mL (≈ 248 µM); in assay [2], 125 µg/mL (≈ 496 µM); in assay [3], 250 µg/mL (≈ 992 µM); in [4], 62.5 µg/mL (≈ 248 µM); in assay [5] it was 31.3 µg/mL (≈ 124 µM); in assay [6], 7.8 µg/mL (≈ 30.9 µM). Besides, the values for the MIC in assay [7], in assay [8] and in assay [9] were 62.5 µg/mL (≈ 248 µM), 250 µg/mL (≈ 992 µM) and 31.3 µg/mL (≈ 124 µM), respectively.
